Where two headings read alike, the source gives them in different places.
Experiments:
[1] = test system: CT26TK Neo cells; test: Effect of ganciclovir on CT26TK Neo cells (TK-3 transduced), cell counts; conditions: lowest dose 6.25 μg/ml, twice per day for four consecutive days
Protocol: CT26 cells are transduced with G-pseudotyped TK-3 vector. Twenty-four hours after adding the viral supernatant, the CT26 cells are placed under G-418 selection (450 µg/ml). After 10 days incubation, a G-418 selected pool is obtained and designated CT26TK Neo. CM26 TK Neo cells were seeded into six 10 cm^2 plates at a density of 2.5×10^6 per plate. As controls, each of two other cell types, CT26 and CT26 beta-gal (this cell line was transduced with a retroviral vector carrying the reporter gene β-galactosidase from E. coli.), were also seeded into six 10 cm^2 plates as controls. Five plates of each cell type were treated twice per day for four consecutive days with medium containing ganciclovir concentrations of 100 μg/ml, 50 μg/ml, 25 μg/ml, 12.5 μg/ml and 6.25 μg/ml. One plate of each cell type was left untreated. Afterwards, the cells were removed from each dish using trypsin-EDTA, resuspended in DMEM with 10% FBS and counted.

[2] = Ganciclovir toxicity in the mouse dose study; type: in vivo, mice
[3] = test system: CT26TK Neo; test: Ganciclovir dose study in mice injected with CT26TK Neo cells (tumor regression); type: in vivo
Protocol: In order to test whether in vivo transduction of a murine tumor could be used to treat the disease, an experiment was performed to determine the optimal concentration of ganciclovir necessary to eliminate a tumor that was transduced and selected in vitro to assure 100% transduction. Twelve groups of 3 mice each are injected with 2×10^5 CT26TK Neo cells. Six groups of mice are injected with these cells intraperitoneally (I.P.) and six groups of mice are injected subcutaneously (S.C.). Two other groups of 3 mice each are injected with 2×10^5 unmodified CT26 cells (as a control) either I.P. or S.C.
Ten days after the injection of the CT26 or CT26TK Neo cells into these groups of mice, several concentrations of ganciclovir treatment are initiated. Each dose regimen consists of 2 daily AM and PM I.P. injections of ganciclovir.
Tumor measurements were made for 23 days FIG. 11). CT26TK Neo grew only slightly slower than unmodified CT26 in the absence of ganciclovir. […] After 24 days, the I.P. injected animals were sacrificed and evaluated. The optimal concentration for anti-tumor effect was similar whether the tumor was grown I.P. or S.C.

[4] = test system: CT26TK Neo; test: Ganciclovir on in vivo tumor growth of CT26TK Neo; parameters: species or system mice; conditions: 62.5 mg/Kg I.P. twice daily, S.C. tumor
Protocol: (§1) In order to determine whether ganciclovir has an effect on the growth of unmodified CT26 tumor cells in vivo, 2 groups of 7 mice are injected S.C. with 2×10^5 unmodified CT26 cells and 2 groups of 7 mice are injected S.C. with 2×10^5 CT26TK Neo cells. Seven days after tumor implantation, one group of CT26 injected mice and one group of CT26TK Neo injected mice are placed on a twice daily (AM and PM) regimen of I.P. ganciclovir at 62.5 mg/Kg. These mice are treated for 12 days or until the CT26TK Neo injected animals have no detectable tumor burden. Tumor growth is monitored over a three week period.

[5] = test system: CT26 beta-gal cells; test: Effect of ganciclovir on CT26 beta-gal cells, cell counts; type: cell-based, mouse
From the text: (§2) One plate of each cell type was left untreated.

[6] = test system: CT26 cells; test: Effect of ganciclovir on unmodified CT26 cells, cell counts; type: cell-based, mouse
From the text: as §2

[7] = test system: CT26; test: Ganciclovir on in vivo tumor growth of unmodified CT26; parameters: species or system mice; conditions: 62.5 mg/Kg I.P. twice daily, S.C. tumor
Protocol: as §1

[8] = test system: hepatitis D; conditions: cited from earlier work
[9] = test system: hepatitis B; conditions: cited from earlier work
[10] = test system: hepatitis C; conditions: six months after termination of treatment; cited from earlier work
[11] = test system: liver; test: Peroxisome proliferator induced liver transduction by beta galactosidase vector, XGAL staining; type: in vivo, Balb/C mice
Protocol: On day 4, 200 ul beta galactosidase retroviral vector (1E9 cfu/ml, DA-Bengal) was injected via tail vein. On day 7, the mice were sacrificed, tissues were fixed in 2% formaldehyde/PBS for 24 hr, and blocked into slices of 2-5 mm. Sections were rinsed in PBS and stained in fresh XGAL solution (5 mM potassium ferricyanide/5 mM potassium ferrocyanide/2 mM MgCl2/0.5mg/ml XGAL in DMF (Gold Scientific)/1×PBS). Tissue was embedded in paraffin (−50 degrees), sectioned at 5 microns (PML, San Diego), and counterstained with Hematoxylin/Eosin.

[12] = 6.25 μg/ml or 12.5 μg/ml, twice per day for four days

Nc1nc(O)c2ncn(COC(CO)CO)c2n1 [ganciclovir]
cytotoxic effect on CT26 TKneo cells [1]: dramatic cytotoxic effect
tolerability ([2]; 15.63 mg/Kg, 31.25 mg/Kg and 62.5 mg/Kg groups, treated for an additional 7 days): able to tolerate the treatment
toxicity observed ([2]; 62.5 mg/Kg groups): not life threatening and reversible
survival (toxic effects) ([2]; 125 mg/Kg, 250 mg/Kg and 500 mg/Kg groups, 2 daily I.P. injections, after 5 days): dead due to the toxic effects
tumor regression ([3]; 15.63 mg/Kg, compared to untreated control groups): Little or no effect
tumor regression ([3]; 31.25 mg/Kg): Partial tumor regression
tumor regression ([3]; 62.5 mg/Kg regimen, 2 daily I.P. injections): Complete tumor regression
tumor burden [4]: dramatic decrease in tumor burden
effect on cell growth [5, 12]: did not have an effect
effect on cell growth ([5]; beginning at 25 ug/ml): dose-dependent decrease in cell growth
effect on cell growth [6, 12]: did not have an effect
effect on cell growth ([6]; beginning at 25 ug/ml): dose-dependent decrease in cell growth
tumor size versus untreated mice [7]: somewhat smaller

alpha interferon
responders relapsed ([8]; in vivo): 85-90%
patients responding to therapy ([8]; pilot studies): 25-60%
patients responding to treatment ([9]; patients infected as adults): about 35%
patients responding to treatment ([9]; perinatal infectees): about 10%
responders relapsed [10]: half

Cc1cccc(Nc2cc(Cl)nc(SCC(=O)O)n2)c1C [WY 14643]
blue cells in liver (background staining) ([11]; WY liver: mitogen, no vector): No blue cells
blue cells in liver, periportally and on the periphery ([11]; group I: IP 500 μl of 15 mg/ml once per day for 4 days plus beta galactosidase vector): Numerous blue cells
blue cells in liver, periportally and on the periphery ([11]; group II: gavage 200 μl of 15 mg/ml once per day for 4 days plus beta galactosidase vector): Numerous blue cells

From patent US6818439B1, “Methods for administration of recombinant gene delivery vehicles for treatment of hemophilia and other disorders” (priority 1994, dated 2004)
